From ChEMBL document CHEMBL4507298 (2021) come the findings set out here.

Data set [1] addresses Beta-1 adrenergic receptor (Homo sapiens) (UniProt P08588). The settings on record: Compound concentration 10.0 uM.
Data set [2] deals with Endothelin-1 receptor (Homo sapiens) (UniProt P25101). As to the kind of experiment: ETA (h) CEREP ligand profiling. Conditions: Compound concentration 10.0 uM; call rule not given here.
Data set [3] concerns the target Muscle, skeletal receptor tyrosine-protein kinase (Homo sapiens) (UniProt O15146). Conditions: Compound concentration 1000.0 nM.
The target in data set [4] is Myosin-IIIb (Homo sapiens) (UniProt Q8WXR4). Conditions: Compound concentration 1000.0 nM.
In data set [5] the target is Calcium/calmodulin-dependent protein kinase kinase 1 (Homo sapiens) (UniProt Q8N5S9). The settings on record: Compound concentration 1000.0 nM.
The target of data set [6] is Mitogen-activated protein kinase 11 (Homo sapiens) (UniProt Q15759). Conditions: Compound concentration 1000.0 nM.
The target of data set [7] is Phosphodiesterase 6 (Homo sapiens) (UniProt Q13956+P18545+P35913+O43924+P16499+P51160). Put plainly: PDE6 CEREP ligand profiling. The data set is classed as protein assay. Conditions: Compound concentration 10.0 uM.
Data set [8] concerns the target Mitogen-activated protein kinase kinase kinase 7 (Homo sapiens) (UniProt O43318). Conditions: Compound concentration 1000.0 nM.
The target in data set [9] is Na+ channel (site 2), sodium channel alpha subunit (Homo sapiens, UniProt P35498+P35499+Q01118+Q14524+Q15858+Q99250+Q9NY46+Q9UI33+Q9UQD0+Q9Y5Y9). Put plainly: Na+ channel (site 2) CEREP ligand profiling. It is filed as protein assay. Conditions: compound concentration 10 uM.
Data set [10] concerns the target Sodium-dependent noradrenaline transporter (Homo sapiens) (UniProt P23975). As to the kind of experiment: NE transporter (h) CEREP ligand profiling. The settings on record: Compound concentration 10.0 uM.
Data set [11] has as its target 5-hydroxytryptamine receptor 1A (Homo sapiens) (UniProt P08908). Put plainly: 5-HT1A (h) CEREP ligand profiling. The settings on record: Compound concentration 10.0 uM.
For data set [12], the target named is T1, 5-hydroxytryptamine receptor 2C (Homo sapiens) (UniProt P28335).
T1 sequence (whole entry): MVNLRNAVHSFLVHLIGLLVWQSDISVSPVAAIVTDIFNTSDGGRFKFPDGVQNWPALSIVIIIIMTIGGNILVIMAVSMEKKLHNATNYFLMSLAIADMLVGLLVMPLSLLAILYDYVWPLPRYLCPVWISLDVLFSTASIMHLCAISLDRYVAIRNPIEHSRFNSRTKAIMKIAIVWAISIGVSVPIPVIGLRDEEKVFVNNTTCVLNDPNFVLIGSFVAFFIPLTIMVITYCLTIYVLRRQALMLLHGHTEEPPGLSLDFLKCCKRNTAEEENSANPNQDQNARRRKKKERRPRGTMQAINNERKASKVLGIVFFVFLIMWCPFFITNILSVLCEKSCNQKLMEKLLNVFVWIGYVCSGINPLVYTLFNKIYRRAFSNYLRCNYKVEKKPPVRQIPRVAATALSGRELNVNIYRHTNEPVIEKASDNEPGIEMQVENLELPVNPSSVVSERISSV
As to the kind of experiment: 5-HT2C (h) CEREP ligand profiling. Conditions: Compound concentration 10.0 uM.

Data set [13] addresses Cyclin-dependent kinase 2 homolog (Plasmodium falciparum (isolate 3D7)) (UniProt P61075). The settings on record: Compound concentration 1000.0 nM.
In data set [14] the target is GABA-A receptor; anion channel (Homo sapiens) (UniProt P14867+P47870+P18507+P28472+P48169+Q99928+Q9UN88+P34903+O00591+O14764+Q8N1C3+P18505+P78334+P47869+P31644+Q16445). Put plainly: Cl- channel CEREP ligand profiling. It is filed as protein-complex assay. The settings on record: Compound concentration 10.0 uM.
Data set [15] deals with Vasopressin V1a receptor (Homo sapiens) (UniProt P37288). Put plainly: V1a (h) CEREP ligand profiling. The settings on record: Compound concentration 10.0 uM.
In data set [16] the target is Melanocortin receptor 4 (Homo sapiens) (UniProt P32245). Put plainly: MC4 (h) CEREP ligand profiling. The settings on record: Compound concentration 10.0 uM.
In data set [17] the target is Dual specificity protein kinase CLK3 (Homo sapiens) (UniProt P49761). Conditions: Compound concentration 1000.0 nM.
Data set [18] addresses Serine/threonine-protein kinase PAK 2 (Homo sapiens) (UniProt Q13177). The settings on record: Compound concentration 1000.0 nM.
Data set [19] concerns the target Ephrin type-B receptor 4 (Homo sapiens) (UniProt P54760). The settings on record: Compound concentration 1000.0 nM.
Data set [20] deals with Serine/threonine-protein kinase 17A (Homo sapiens) (UniProt Q9UEE5). Conditions: Compound concentration 1000.0 nM.
The target in data set [21] is Cyclin-dependent kinase 8 (Homo sapiens) (UniProt P49336). The settings on record: Compound concentration 1000.0 nM.
In data set [22] the target is Dual specificity mitogen-activated protein kinase kinase 4 (Homo sapiens) (UniProt P45985). The settings on record: Compound concentration 1000.0 nM.
Data set [23] has as its target Cysteinyl leukotriene receptor 1 (Homo sapiens) (UniProt Q9Y271). As to the kind of experiment: LTD4 (h) (CysLT1) CEREP ligand profiling. The settings on record: Compound concentration 10.0 uM.
Data set [24] addresses Serine/threonine-protein kinase ULK2 (Homo sapiens) (UniProt Q8IYT8). Conditions: Compound concentration 1000.0 nM.
The target in data set [25] is Protein-tyrosine kinase 6 (Homo sapiens) (UniProt Q13882). The settings on record: Compound concentration 1000.0 nM.
The subject of data set [26] is Fibroblast growth factor receptor 3 (Homo sapiens), P22607 [G697C]. Conditions: Compound concentration 1000.0 nM.
Data set [27] concerns the target Sodium- and chloride-dependent GABA transporter 1 (Homo sapiens) (UniProt P30531). As to the kind of experiment: GABA transporter CEREP ligand profiling. Conditions: Compound concentration 10.0 uM.
Data set [28] addresses Glucocorticoid receptor (Homo sapiens) (UniProt P04150). As to the kind of experiment: GR (h) CEREP ligand profiling. The settings on record: Compound concentration 10.0 uM.
Data set [29] concerns the target Serine/threonine-protein kinase D2 (Homo sapiens) (UniProt Q9BZL6). Conditions: Compound concentration 1000.0 nM.
Data set [30] deals with Serine/threonine-protein kinase PAK 4 (Homo sapiens) (UniProt O96013). Conditions: Compound concentration 1000.0 nM.
Data set [31] concerns the target Serine/threonine-protein kinase 33 (Homo sapiens) (UniProt Q9BYT3). Conditions: Compound concentration 1000.0 nM.
Data set [32] concerns the target Tyrosine-protein kinase Lyn (Homo sapiens) (UniProt P07948). The settings on record: Compound concentration 1000.0 nM.
Data set [33] has as its target cGMP-dependent protein kinase 2 (Homo sapiens) (UniProt Q13237). Conditions: Compound concentration 1000.0 nM.
Data set [34] deals with Sodium-dependent dopamine transporter (Homo sapiens) (UniProt Q01959). Put plainly: DA transporter (h) CEREP ligand profiling. The settings on record: Compound concentration 10.0 uM.
The target of data set [35] is Mitogen-activated protein kinase 6 (Homo sapiens) (UniProt Q16659). The settings on record: Compound concentration 1000.0 nM.
Data set [36] concerns the target Leukotriene B4 receptor 1 (Homo sapiens, UniProt Q15722). As to the kind of experiment: LTB4 (h) (BLT1) CEREP ligand profiling.

Sequence of Leukotriene B4 receptor 1 (Q15722 whole entry): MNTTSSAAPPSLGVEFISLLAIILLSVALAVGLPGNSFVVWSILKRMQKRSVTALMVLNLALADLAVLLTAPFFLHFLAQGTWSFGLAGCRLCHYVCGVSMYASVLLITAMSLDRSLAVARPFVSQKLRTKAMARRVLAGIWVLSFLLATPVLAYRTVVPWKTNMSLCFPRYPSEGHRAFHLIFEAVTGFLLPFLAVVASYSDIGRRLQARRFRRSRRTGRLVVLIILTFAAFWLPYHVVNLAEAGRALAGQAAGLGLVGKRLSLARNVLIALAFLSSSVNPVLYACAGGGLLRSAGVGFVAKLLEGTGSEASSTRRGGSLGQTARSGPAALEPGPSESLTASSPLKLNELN
Sequence of Serine/threonine-protein kinase PAK 2 (Homo sapiens) (Q13177 whole entry): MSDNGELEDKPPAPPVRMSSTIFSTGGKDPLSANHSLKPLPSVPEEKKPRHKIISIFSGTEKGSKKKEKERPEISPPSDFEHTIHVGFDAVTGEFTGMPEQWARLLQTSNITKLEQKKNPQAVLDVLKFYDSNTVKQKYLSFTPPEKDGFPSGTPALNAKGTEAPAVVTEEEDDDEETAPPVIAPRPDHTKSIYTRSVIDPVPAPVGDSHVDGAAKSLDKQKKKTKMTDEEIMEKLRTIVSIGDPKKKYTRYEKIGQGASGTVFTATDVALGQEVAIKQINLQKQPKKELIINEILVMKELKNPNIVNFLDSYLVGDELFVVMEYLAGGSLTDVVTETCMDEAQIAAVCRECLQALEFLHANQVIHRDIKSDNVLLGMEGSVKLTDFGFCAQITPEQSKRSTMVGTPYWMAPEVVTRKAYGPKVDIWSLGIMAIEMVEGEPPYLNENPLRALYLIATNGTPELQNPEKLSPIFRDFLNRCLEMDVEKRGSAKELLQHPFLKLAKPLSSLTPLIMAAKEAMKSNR
Sequence of Glucocorticoid receptor (Homo sapiens) (P04150 whole entry): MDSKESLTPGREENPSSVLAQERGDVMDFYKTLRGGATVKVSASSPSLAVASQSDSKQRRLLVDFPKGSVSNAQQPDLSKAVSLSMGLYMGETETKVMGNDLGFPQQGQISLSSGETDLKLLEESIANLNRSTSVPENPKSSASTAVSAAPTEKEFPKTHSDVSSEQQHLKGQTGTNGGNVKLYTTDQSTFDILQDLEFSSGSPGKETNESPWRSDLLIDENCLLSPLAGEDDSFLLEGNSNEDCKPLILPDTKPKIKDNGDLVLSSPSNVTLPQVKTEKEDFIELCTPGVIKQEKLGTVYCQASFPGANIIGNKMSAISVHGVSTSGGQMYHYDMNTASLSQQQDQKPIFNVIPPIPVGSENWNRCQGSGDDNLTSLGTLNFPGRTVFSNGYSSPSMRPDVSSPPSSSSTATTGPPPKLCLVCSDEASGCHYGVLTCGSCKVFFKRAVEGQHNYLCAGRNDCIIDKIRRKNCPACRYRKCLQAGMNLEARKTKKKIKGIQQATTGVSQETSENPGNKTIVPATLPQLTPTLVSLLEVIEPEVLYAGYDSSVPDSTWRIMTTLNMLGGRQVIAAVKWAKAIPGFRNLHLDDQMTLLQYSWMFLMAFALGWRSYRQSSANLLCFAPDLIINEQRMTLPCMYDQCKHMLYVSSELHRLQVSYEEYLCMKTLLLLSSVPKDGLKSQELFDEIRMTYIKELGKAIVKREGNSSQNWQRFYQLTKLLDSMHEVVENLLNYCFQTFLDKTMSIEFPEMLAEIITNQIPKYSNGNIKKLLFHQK
Sequence of Sodium- and chloride-dependent GABA transporter 1 (Homo sapiens) (P30531 whole entry, looked up): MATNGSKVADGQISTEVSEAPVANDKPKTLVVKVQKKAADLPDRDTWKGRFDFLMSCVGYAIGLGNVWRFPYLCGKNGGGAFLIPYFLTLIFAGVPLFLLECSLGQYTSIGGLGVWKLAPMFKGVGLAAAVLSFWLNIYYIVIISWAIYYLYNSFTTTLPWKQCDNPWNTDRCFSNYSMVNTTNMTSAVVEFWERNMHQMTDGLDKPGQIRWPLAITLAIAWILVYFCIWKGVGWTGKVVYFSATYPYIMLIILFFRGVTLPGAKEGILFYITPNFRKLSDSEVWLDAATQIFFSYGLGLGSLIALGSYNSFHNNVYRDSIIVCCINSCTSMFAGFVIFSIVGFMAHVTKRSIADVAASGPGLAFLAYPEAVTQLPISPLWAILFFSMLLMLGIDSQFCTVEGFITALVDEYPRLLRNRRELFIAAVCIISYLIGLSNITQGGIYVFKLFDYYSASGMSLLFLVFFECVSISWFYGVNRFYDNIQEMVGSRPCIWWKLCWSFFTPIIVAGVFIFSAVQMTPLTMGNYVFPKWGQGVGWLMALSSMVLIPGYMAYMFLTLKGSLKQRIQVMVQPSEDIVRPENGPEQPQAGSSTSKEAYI
Sequence of Tyrosine-protein kinase Lyn (Homo sapiens) (P07948 2-512 limits assumed): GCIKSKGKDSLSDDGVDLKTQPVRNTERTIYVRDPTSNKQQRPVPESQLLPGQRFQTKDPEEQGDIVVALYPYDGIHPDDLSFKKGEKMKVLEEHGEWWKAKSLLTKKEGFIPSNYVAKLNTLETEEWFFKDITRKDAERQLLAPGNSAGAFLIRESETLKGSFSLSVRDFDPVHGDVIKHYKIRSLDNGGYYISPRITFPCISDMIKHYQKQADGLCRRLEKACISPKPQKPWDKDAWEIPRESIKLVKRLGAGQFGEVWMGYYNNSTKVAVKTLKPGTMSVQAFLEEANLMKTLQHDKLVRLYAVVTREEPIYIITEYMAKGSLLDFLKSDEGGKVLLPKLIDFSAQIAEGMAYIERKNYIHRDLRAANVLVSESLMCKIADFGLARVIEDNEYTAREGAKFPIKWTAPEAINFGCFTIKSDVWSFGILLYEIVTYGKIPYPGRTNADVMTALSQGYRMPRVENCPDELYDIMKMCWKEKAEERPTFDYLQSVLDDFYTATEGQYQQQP
Sequence of Mitogen-activated protein kinase 6 (Homo sapiens) (Q16659 whole entry): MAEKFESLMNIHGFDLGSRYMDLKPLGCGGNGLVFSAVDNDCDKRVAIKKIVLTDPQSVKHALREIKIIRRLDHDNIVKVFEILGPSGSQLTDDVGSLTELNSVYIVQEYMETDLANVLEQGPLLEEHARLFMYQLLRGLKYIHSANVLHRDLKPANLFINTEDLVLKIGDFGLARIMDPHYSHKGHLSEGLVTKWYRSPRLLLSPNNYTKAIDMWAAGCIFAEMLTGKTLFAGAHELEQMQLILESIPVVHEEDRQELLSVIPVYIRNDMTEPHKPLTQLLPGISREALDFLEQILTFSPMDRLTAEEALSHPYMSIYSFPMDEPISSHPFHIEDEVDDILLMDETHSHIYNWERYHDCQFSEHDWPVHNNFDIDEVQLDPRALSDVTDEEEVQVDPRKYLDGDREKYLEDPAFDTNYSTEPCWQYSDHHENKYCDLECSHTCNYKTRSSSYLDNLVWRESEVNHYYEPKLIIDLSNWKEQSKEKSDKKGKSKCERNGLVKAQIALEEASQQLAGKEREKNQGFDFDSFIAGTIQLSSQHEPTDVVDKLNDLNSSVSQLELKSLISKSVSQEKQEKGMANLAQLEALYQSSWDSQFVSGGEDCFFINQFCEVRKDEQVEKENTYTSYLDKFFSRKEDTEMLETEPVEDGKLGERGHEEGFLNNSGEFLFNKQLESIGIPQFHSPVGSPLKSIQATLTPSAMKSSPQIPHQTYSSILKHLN
Sequence of Fibroblast growth factor receptor 3 (Homo sapiens), P22607 [G697C] (P22607 whole entry G697C): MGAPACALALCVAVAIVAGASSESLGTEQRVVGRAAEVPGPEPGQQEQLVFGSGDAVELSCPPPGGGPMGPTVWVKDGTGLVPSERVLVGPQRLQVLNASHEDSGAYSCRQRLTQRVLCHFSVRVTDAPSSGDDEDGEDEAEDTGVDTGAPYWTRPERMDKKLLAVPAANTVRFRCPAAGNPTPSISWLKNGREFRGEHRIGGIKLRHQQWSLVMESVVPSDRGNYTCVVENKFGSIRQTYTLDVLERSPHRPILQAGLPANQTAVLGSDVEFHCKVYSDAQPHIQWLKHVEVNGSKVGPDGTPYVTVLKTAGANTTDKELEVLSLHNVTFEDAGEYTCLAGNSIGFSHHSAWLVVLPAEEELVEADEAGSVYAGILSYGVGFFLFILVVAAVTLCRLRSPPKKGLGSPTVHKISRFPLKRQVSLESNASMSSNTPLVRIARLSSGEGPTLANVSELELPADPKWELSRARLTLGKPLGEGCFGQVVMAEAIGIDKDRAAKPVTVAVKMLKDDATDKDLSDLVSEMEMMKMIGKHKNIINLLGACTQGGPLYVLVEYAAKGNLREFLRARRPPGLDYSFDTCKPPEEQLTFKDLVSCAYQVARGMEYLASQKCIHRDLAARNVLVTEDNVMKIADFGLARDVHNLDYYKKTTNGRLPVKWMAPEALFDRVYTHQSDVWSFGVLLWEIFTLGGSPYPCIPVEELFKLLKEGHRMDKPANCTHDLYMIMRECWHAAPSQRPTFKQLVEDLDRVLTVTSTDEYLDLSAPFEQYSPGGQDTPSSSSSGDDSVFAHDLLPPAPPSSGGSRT
Sequence of Sodium-dependent dopamine transporter (Homo sapiens) (Q01959 whole entry): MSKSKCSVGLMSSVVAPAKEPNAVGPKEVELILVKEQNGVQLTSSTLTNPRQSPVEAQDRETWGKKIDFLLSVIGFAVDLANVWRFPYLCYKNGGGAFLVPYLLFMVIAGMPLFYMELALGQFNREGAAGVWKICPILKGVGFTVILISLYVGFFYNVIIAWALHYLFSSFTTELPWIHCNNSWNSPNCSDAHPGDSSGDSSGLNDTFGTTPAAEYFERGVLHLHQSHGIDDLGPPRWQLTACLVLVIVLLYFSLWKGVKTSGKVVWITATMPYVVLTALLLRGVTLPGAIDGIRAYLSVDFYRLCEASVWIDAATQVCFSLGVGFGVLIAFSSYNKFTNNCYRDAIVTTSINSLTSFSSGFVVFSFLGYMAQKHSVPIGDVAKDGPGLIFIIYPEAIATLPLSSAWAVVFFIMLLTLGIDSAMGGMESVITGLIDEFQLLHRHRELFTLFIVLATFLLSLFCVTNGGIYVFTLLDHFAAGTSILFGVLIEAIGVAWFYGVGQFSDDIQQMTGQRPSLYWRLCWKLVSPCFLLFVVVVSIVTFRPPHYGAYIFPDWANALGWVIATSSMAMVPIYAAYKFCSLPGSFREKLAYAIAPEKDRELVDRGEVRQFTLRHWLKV

As for `O=C(c1ccc(F)cc1)N1CC(COc2ccc(Br)cc2)(C(=O)O)C1` [PF-04475866], in data set [1], the inhibition is -6.66%.
As to `COc1ccc2cc(OCC3(C(=O)O)CN(C(=O)c4ccc(F)cc4)C3)ccc2c1` [PF-04418948], the inhibition in data set [2] was 3%; in [7] it was 3%; in data set [10], -2%; in data set [11], 6%; in data set [12], 8%; in data set [14] it was 19%. In addition, the inhibition was -3% in data set [15]; 8% in data set [16]; 2% in [23]; 14% in [27]; -1% in data set [28]; 11% in data set [34]. The inhibition in data set [36] (Compound concentration 10.0 uM) is 51%. The residual activity in data set [3] is 72%; in data set [4] it was 71%; in data set [5] it was 91%; in data set [6] it was 78%; in [8], 96%; in data set [13], 97%. In addition, the residual activity in data set [17] is 99%; in data set [18] it was 83%; in data set [19], 95%; in data set [20], 81%; in [21] it was 94%; in data set [22] it was 90%. The residual activity in [24] was 89%; in data set [25], 99%; in [26], 88%; in [29] it was 93%; in data set [30] it was 94%; in data set [31], 98%. For the same molecule, the residual activity was 85% in data set [32], 85% in data set [33] and 88% in data set [35]. Moreover, the inhibition at 10 µM in data set [9] is recorded as 9% (not active). This molecule also displayed an IC50 in [36] of 9.7 µM. In addition, the Ki in data set [36] amounted to 4.8 µM.

The inhibition is the drop in the measured response relative to a control, in per cent. As a reminder, the IC50 is the concentration that gives 50% inhibition. A lower IC50 goes with inhibition by little substance. The Ki is the equilibrium dissociation constant of an inhibitor or competing ligand from its target. A higher Ki goes with a looser hold on the target.
